Molecules are shown by their SMILES.

The target in the experiment is T1, glucocorticoid receptor (GR) (Homo sapiens, UniProt P04150).
T1 construct: endogenous in cells; host or cells: HeLa (ATCC) cell lysate supernatant
T1 sequence (P04150 1-777): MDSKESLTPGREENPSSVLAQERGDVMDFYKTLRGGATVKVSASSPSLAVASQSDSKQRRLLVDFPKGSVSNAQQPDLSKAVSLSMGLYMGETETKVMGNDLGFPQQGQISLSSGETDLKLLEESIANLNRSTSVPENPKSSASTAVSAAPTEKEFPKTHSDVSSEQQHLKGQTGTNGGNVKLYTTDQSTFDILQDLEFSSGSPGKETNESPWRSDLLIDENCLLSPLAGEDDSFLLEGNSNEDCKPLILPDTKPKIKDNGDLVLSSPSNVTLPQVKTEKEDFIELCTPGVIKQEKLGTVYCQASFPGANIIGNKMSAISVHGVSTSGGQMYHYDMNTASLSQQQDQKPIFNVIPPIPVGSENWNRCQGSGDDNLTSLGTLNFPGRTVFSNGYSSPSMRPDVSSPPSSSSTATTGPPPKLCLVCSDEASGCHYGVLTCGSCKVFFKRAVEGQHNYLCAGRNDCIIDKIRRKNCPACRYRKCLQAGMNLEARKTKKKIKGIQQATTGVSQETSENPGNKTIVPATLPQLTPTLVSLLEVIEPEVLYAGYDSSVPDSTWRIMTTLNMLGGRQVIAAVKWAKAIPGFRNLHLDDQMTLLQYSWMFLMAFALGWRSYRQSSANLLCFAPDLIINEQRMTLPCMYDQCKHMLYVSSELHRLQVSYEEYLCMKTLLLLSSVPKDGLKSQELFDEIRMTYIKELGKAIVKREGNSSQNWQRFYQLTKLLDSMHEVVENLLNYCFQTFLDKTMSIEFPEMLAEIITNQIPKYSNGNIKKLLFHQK
Nature of the experiment: GR Ligand Binding Assay (3H-dexamethasone displacement, HeLa cell lysate). As to conditions: 3H-DEX trace, DEX as reference, read-out: GR BIND Ki. As to the method:
Binding Buffer: TEGM (10 mM Tris-HCl, 1 mM EDTA, 10% glycerol, 1 mM beta-mecaptoethanol, 10 mM Sodium Molybdate, pH 7.2)
Dexmethasone-methyl-^3H, (DEX*); (Amersham cat# TRK645) Dexamethasone(DEX) (Sigma, cat# D1756):
Cells (Hall R. E., et al., European Journal of Cancer, 30A: 484-490 (1994)) HeLa (ATCC) cultured in RPMI 1640 (Gibco 11835-055) containing 20 mM Hepes, 4 mM L-glu, 10 ug/ml of human insulin (Sigma, I-0259), 10% FBS and 20 ug/ml of Gentamicin (Gibco#15710-072) are rinsed twice in PBS. Phenol red-free Trypsin-EDTA is diluted in the same PBS 1:10. The cell layers are rinsed with 1× Trypsin, extra Trypsin is poured out, and the cell layers are incubated at 37° C. for ˜2 min. The flask is tapped and checked for signs of cell detachment. Once the cells begin to slide off the flask, the complete media is added. The cells are counted at this point, then diluted to the appropriate concentration and split into flasks or dishes for further culturing (Usually 1:3 to 1:6 dilution).
When the cells are 70 to 85% confluent, they are detached as described above, and collected by centrifuging at 1000 g for 10 minutes at 4° C. The cell pellet is washed twice with TEGM (10 mM Tris-HCl, 1 mM EDTA, 10% glycerol, 1 mM beta-mercaptoethanol, 10 mM Sodium Molybdate, pH 7.2). After the final wash, the cells are resuspended in TEGM at a concentration of 10^7 cells/mL. The cell suspension is snap frozen in liquid nitrogen or ethanol/dry ice bath and transferred to −80° C. freezer on dry ice. Before setting up the binding assay, the frozen samples are left on ice-water to just thaw (˜1 hr). Then the samples are centrifuged at 12,500 g to 20,000 g for 30 min at 4° C. The supernatant is used to set-up assay right away. If using 50 μL of supernatant, the test compound can be prepared in 50 μL of the TEGM buffer.
1×TEGM buffer is prepared, and the isotope-containing assay mixture is prepared in the following order: EtOH (2% final concentration in reaction), ^3H-DEX (Amersham Biosciences) and 1×TEGM. [e.g. For 100 samples, 200 μL (100×2) of EtOH+4.25 μL of 1:10 ^3H—Dex stock+2300 μL (100×23) 1×TEGM]. The compound is serially diluted, e.g., if starting final conc. is 1 μM, and the compound is in 25 μL of solution, for duplicate samples, 75 μL of 4×1 μM solution is made and 3 μL of 100 μM is added to 72 μL of buffer, and 1:5 serial dilution.
25 μL, of 3H-DEX (6 nM) trace and 25 μL compound solution are first mixed together, followed by addition of 50 μL receptor solution. The reaction is gently mixed, spun briefly at about 200 rpm and incubated at 4° C. overnight. 100 μL of 50% HAP slurry is prepared and added to the incubated reaction which is then vortexed and incubated on ice for 5 to 10 minutes. The reaction mixture is vortexed twice more to resuspend HAP while incubating reaction. The samples in 96-well format are then washed in wash buffer using The FilterMate™ Universal Harvester plate washer (Packard). The washing process transfers HAP pellet containing ligand-bound expressed receptor to Unifilter-96 GF/B filter plate (Packard). The HAP pellet on the filter plate is incubated with 50 μL of MICROSCINT (Packard) scintillint for 30 minutes before being counted on the TopCount microscintillation counter (Packard). IC50s are calculated using DEX as a reference.
Take `C[C@]12Cc3cnn(-c4ccc(F)cc4)c3C=C1CC[C@@]2(CO)CC(O)c1ccccn1` (single isomer, unassigned) [Example 1a]: the inhibitory constant (Ki) – broadly, the dissociation constant of the complex between target and ligand, obtained from inhibition or displacement – amounted to 5.2 nM.
On to `C[C@]12Cc3cnn(-c4ccc(F)cc4)c3C=C1CC[C@@]2(CO)CC(O)c1ccccn1` (single isomer, unassigned) [Example 1b], for which the Ki amounted to 4 nM.
The figure for `Cc1ccc(C(O)C[C@]2(CO)CCC3=Cc4c(cnn4-c4ccc(F)cc4)C[C@@]32C)cc1` (single isomer, unassigned) [Example 2a] is 2.2 nM; for `Cc1ccc(C(O)C[C@]2(CO)CCC3=Cc4c(cnn4-c4ccc(F)cc4)C[C@@]32C)cc1` (single isomer, unassigned) [Example 2b] it is 2.1 nM.
The figure for `C[C@]12Cc3cnn(-c4ccc(F)cc4)c3C=C1CC[C@@]2(CO)CC(O)c1ccccc1Cl` (single isomer, unassigned) [Example 3a] is 0.9 nM; for `C[C@]12Cc3cnn(-c4ccc(F)cc4)c3C=C1CC[C@@]2(CO)CC(O)c1ccccc1Cl` (single isomer, unassigned) [Example 3b] it is 0.9 nM; for `Cc1cccc(C(O)C[C@]2(CO)CCC3=Cc4c(cnn4-c4ccc(F)cc4)C[C@@]32C)c1` (single isomer, unassigned) [Example 5a] it is 1.4 nM.
The figure for `Cc1cccc(C(O)C[C@]2(CO)CCC3=Cc4c(cnn4-c4ccc(F)cc4)C[C@@]32C)c1` (single isomer, unassigned) [Example 5b] is 0.9 nM; for `C[C@]12Cc3cnn(-c4ccc(F)cc4)c3C=C1CC[C@@]2(CO)CC(O)c1cc(F)cc(Cl)c1` (single isomer, unassigned) [Example 6a] it is 1.1 nM.
With `C[C@]12Cc3cnn(-c4ccc(F)cc4)c3C=C1CC[C@@]2(CO)CC(O)c1cc(F)cc(Cl)c1` (single isomer, unassigned) [Example 6b], the inhibition constant Ki was 1.3 nM.
As to `C[C@]12Cc3cnn(-c4ccc(F)cc4)c3C=C1CC[C@@]2(CO)CC(O)c1cccc(C(F)(F)F)c1` (single isomer, unassigned) [Example 7a], the Ki came to 0.6 nM.
The figure for `C[C@]12Cc3cnn(-c4ccc(F)cc4)c3C=C1CC[C@@]2(CO)CC(O)c1cccc(C(F)(F)F)c1` (single isomer, unassigned) [Example 7b] is 0.9 nM.
Turning to `C[C@]12Cc3cnn(-c4ccc(F)cc4)c3C=C1CC[C@@]2(CO)CC(O)c1ncccc1F` (single isomer, unassigned) [Example 10a], the inhibitory constant (Ki) turned out to be 3.1 nM.
The same measure for `C[C@]12Cc3cnn(-c4ccc(F)cc4)c3C=C1CC[C@@]2(CO)CC(O)c1ncccc1F` (single isomer, unassigned) [Example 10b]: 1.8 nM; for `C[C@]12Cc3cnn(-c4ccc(F)cc4)c3C=C1CC[C@@]2(CO)CC1OC(=O)c2ccccc21` (single isomer, unassigned) [Example 12a]: 2.6 nM; for `C[C@]12Cc3cnn(-c4ccc(F)cc4)c3C=C1CC[C@@]2(CO)CC1OC(=O)c2ccccc21` (single isomer, unassigned) [Example 12b]: 1.5 nM.
The figure for `C[C@]12Cc3cnn(-c4ccc(F)cc4)c3C=C1CC[C@@]2(CO)CC(O)c1ccccc1` (single isomer, unassigned) [Example 13a] is 2.5 nM.
For `C[C@]12Cc3cnn(-c4ccc(F)cc4)c3C=C1CC[C@@]2(CO)CC(O)c1ccccc1` (single isomer, unassigned) [Example 13b], the Ki came out at 1.9 nM.
With `CC(C)C(O)C[C@]1(CO)CCC2=Cc3c(cnn3-c3ccc(F)cc3)C[C@@]21C` (single isomer, unassigned) [Example 14a], the Ki turned out to be 6.4 nM.
Turning to `CC(C)C(O)C[C@]1(CO)CCC2=Cc3c(cnn3-c3ccc(F)cc3)C[C@@]21C` (single isomer, unassigned) [Example 14b], the Ki was determined as 14.1 nM.
The same measure for `C[C@]12Cc3cnn(-c4ccc(F)cc4)c3C=C1CC[C@@]2(CO)CC(O)c1cccnc1` (single isomer, unassigned) [Example 15a]: 10 nM.

Values taken from patent US20120095055A1, “HEXAHYDROCYCLOPENTYL[f]INDAZOLE 5-HYDROXYMETHYL ETHANOLS AND DERIVATIVES THEREOF AS SELECTIVE GLUCOCORTICOID RECEPTOR MODULATORS” (Merck Sharp & Dohme, Corp., priority 2009, published 2012).
